Measured values reported in patent EP1143981B1, “USE OF N-GLYCOLNEURAMINIC ACID AND ITS DERIVATIVES FOR THE MANUFACTURE OF A MEDICAMENT FOR THE TREATMENT OF HIV INFECTIONS” (Glukor, Inc., priority 1998, dated 2000).
pIC50: −log10 of the molar value. Several values for one entry are separate records, joined by “and”; a condition that tells them apart may be missing. Equal values may be shown once.

Test system: HIV-1ROJO
Assay: Reverse transcriptase activity assay in infected PBMCs
Format: cell-based
Conditions: for RT activity % VC: % virus control; for RT Activity (cpm) / Reverse Transcriptase (RT) Activity (cpm): single samples; for pIC50: Human immunodeficiency virus 1, PBMC
Description: PBMCs were isolated from fresh human blood obtained commercially from the American Red Cross (Baltimore, Maryland). CEM-SS cells were obtained from the NIH AIDS reagent program. The low passage, lymphotropic clinical isolate ROJO was obtained from a pediatric patient attending the AIDS Clinic at the University of Alabama at Birmingham. Phytohemagglutinin (PHA-P) was obtained from Sigma Chemical Co. (St. Louis, MO) and recombinant IL-2 was obtained from Amgen (San Francisco, CA). As a positive control for antiviral assays, AZT was obtained from the NIH AIDS Reagent Program. HIV-1RF also was obtained from the NIH AIDS reagent program. Tritiated thymidine triphosphate was obtained from New England Nuclear (Boston, MA). Each plate in each experiment contained cell control wells (cells only), virus control wells (cells plus virus), drug toxicity control wells (cells plus drug only), drug colorimetric control wells (drug only) as well as experimental wells (drug plus cells plus virus).
Fresh human PBMCs were isolated from voluntary Red Cross donors, seronegative for HIV and HBV. Leukophoresed blood was diluted 1:1 with Dulbecco's PBS, layered over 14 mL of Ficoll-Hypaque density gradient in a 50mL centrifuge and then centrifuged for 30 minutes at 600 x g. Banded PBMCs were gently aspirated from the resulting interface and subsequently washed twice with PBS by low speed centrifugation. […] PBMCs were maintained in this medium at a concentration of 1-2 x 10^6 cells/mL with bi-weekly medium changes until used in the assay.
For the standard PBMC assay, PHA-P stimulated cells from at least two normal donors were pooled, diluted in fresh medium to a final concentration of 1 x 10^6 cells/mL, and plated in the interior wells of a 96 well round bottom microplate at 50 µL/well (5 x 10^4 cells/well). Test drug dilutions were prepared at a 2X concentration in microfuge tubes and 100 µL of each concentration was placed in appropriate wells in a standard format. A predetermined dilution of virus stock was placed in each test well (50 µL, final MOI ≅ 0.1). Wells with cells and virus alone were used for virus control. Separate plates were prepared identically without virus for drug cytotoxicity studies using an XTT assay system. The PBMC cultures were maintained for seven days following infection, at which time cell-free supernatant samples were collected and assayed for reverse transcriptase activity as described below.
Virus Preparation: Pre-tittered aliquots of HIV-1ROJO and HIV-1RF were removed from the freezer (-80°C) and thawed to room temperature in a biological safety cabinet. The virus was resuspended and diluted into tissue culture medium such that the amount of virus added to each well in a volume of 50 µL will be the amount determined to give complete cell killing at 6 days post-infection.
Reverse Transcriptase Activity Assay: A microtiter based reverse transcriptase (RT) reaction was utilized as described by Buckheit et al., (1991), AIDS Research and Human Retroviruses, 7:295-302. Tritiated thymidine triphosphate (^3H-TTP) was suspended in distilled H2O at 5 Ci/mL. Poly rA and oligo dT were prepared as a stock solution which was kept at -20°C. RT reaction buffer was prepared fresh on a daily basis and contained 125 µL 1M EGTA, 125 µL dH2O, 110 µL 10% SDS, 50 µL 1M Tris (pH 7.4), 50 µL 1M DTT, and 40 µL 1M MgCl2. These three solutions were mixed together in a ratio of 2 parts ^3H-TTP, 1 part poly rA:oligo dT, and 1 part reaction buffer. Ten microliters of this reaction mixture were placed in a round bottom microtiter plate and 15 µL of virus containing supernatant were added and mixed. The plate was incubated at 37°C in a water bath with a solid support to prevent submersion of the plate and incubated for 60 minutes.

[1] = 0.0001 mM, simultaneously exposed to drug and HIV
[2] = 0.00032 mM, 2-hour pretreatment
[3] = 0.00032 mM, simultaneously exposed to drug and HIV
[4] = 0.001 mM, simultaneously exposed to drug and HIV
[5] = 0.0032 mM, simultaneously exposed to drug and HIV
[6] = 0.01 mM, simultaneously exposed to drug and HIV
[7] = 0.032 mM, simultaneously exposed to drug and HIV
[8] = 0.1 mM, simultaneously exposed to drug and HIV
[9] = 0.32 mM, simultaneously exposed to drug and HIV
[10] = 1 mM, simultaneously exposed to drug and HIV

`O=C(CO)N[C@H]1[C@H]([C@H](O)[C@H](O)CO)OC(O)(C(=O)O)C[C@@H]1O` (stereo partly shown) [N-glycolylneuraminic acid] was tested, and the “Reverse Transcriptase (RT) Activity (cpm), Mean” value (shortened to “Reverse Transcriptase … Mean”) (0.0001 mM, 2-hour pretreatment) was 2763.7 cpm, the “RT activity % VC” value (0.0001 mM, 2-hour pretreatment) was 134.2% and the “RT Activity (cpm), Mean” value [1] was 2348.3 cpm. For the same compound, the “RT activity % VC” value [1] was 78.5%, the “RT Activity (cpm)” value [1] was 2423.0 cpm and 2253.0 cpm and 2369.0 cpm and the “Reverse Transcriptase … Mean” value [2] was 2015.3 cpm. The “RT activity % VC” value [2] was 97.8%, the “RT Activity (cpm), Mean” value [3] was 2795.0 cpm and the “RT activity % VC” value [3] was 93.4%. For the same compound, the “Reverse Transcriptase … Mean” value (0.001 mM, 2-hour pretreatment) was 1867.0 cpm, the “RT activity % VC” value (0.001 mM, 2-hour pretreatment) was 90.6% and the “RT Activity (cpm), Mean” value [4] was 3108.7 cpm. The “RT activity % VC” value [4] was 103.9%, the “Reverse Transcriptase … Mean” value (0.0032 mM, 2-hour pretreatment) was 2529.0 cpm and the “RT activity % VC” value (0.0032 mM, 2-hour pretreatment) was 122.8%. The “Reverse Transcriptase (RT) Activity (cpm)” value (0.0032 mM, 2-hour pretreatment) was 2381.0 cpm and 3368.0 cpm and 1838.0 cpm, the “RT Activity (cpm), Mean” value [5] was 2892.7 cpm and the “RT activity % VC” value [5] was 96.7%. For the same compound, the “Reverse Transcriptase … Mean” value (0.01 mM, 2-hour pretreatment) was 951.3 cpm, the “RT activity % VC” value (0.01 mM, 2-hour pretreatment) was 46.2% and the “RT Activity (cpm), Mean” value [6] was 2163.3 cpm. The “RT activity % VC” value [6] was 72.3%, the “RT Activity (cpm)” value [6] was 2284.0 cpm and 2280.0 cpm and 1926.0 cpm and the “Reverse Transcriptase … Mean” value (0.032 mM, 2-hour pretreatment) was 561.7 cpm. The “RT activity % VC” value (0.032 mM, 2-hour pretreatment) was 27.3%, the “RT Activity (cpm), Mean” value [7] was 1867.3 cpm and the “RT activity % VC” value [7] was 62.4%. The “RT Activity (cpm)” value [7] was 1814.0 cpm and 2094.0 cpm and 1694.0 cpm, the “Reverse Transcriptase … Mean” value (0.1 mM, 2-hour pretreatment) was 459.0 cpm and the “RT activity % VC” value (0.1 mM, 2-hour pretreatment) was 22.3%. For the same compound, the “RT Activity (cpm), Mean” value [8] was 906.3 cpm, the “RT activity % VC” value [8] was 30.3% and the “Reverse Transcriptase … Mean” value (0.32 mM, 2-hour pretreatment) was 146.7 cpm. For the same compound, the “RT activity % VC” value (0.32 mM, 2-hour pretreatment) was 7.1%, the “Reverse Transcriptase (RT) Activity (cpm)” value (0.32 mM, 2-hour pretreatment) was 196.0 cpm and 140.0 cpm and 104.0 cpm and the “RT Activity (cpm), Mean” value [9] was 102.7 cpm. For the same compound, the “RT Activity (cpm)” value [9] was 132.0 cpm and 108.0 cpm and 68.0 cpm, the “Reverse Transcriptase … Mean” value (1 mM, 2-hour pretreatment) was 76.0 cpm and the “RT activity % VC” value (1 mM, 2-hour pretreatment) was 3.7%. For the same compound, the “Reverse Transcriptase (RT) Activity (cpm)” value (1 mM, 2-hour pretreatment) was 72.0 cpm and 68.0 cpm and 88.0 cpm, the “RT Activity (cpm), Mean” value [10] was 204 cpm and the “RT activity % VC” value [10] was 6.8%. The pIC50 (PBMCs, 2hr pretreatment) was about 5.00, the pIC50 (PBMCs, simultaneously exposed to drug and HIV, without a pretreatment) was about 4.24 and the TI (PBMCs, simultaneously exposed to drug and HIV) was over 17.25. The anti-HIV activity (PBMCs, with and without a 2hr pretreatment of the cells) was “active”.
